According to US20220104481A1, “CRYOPRESERVATION OF STEM CELLS” (TiGenix, S.A.U., priority 2019, published 2022):

Tested on: ASCs
Test: MTS assay after post-thaw seeding of ASCs pretreated with compounds prior to freezing
Assay type: cell-based, human
Conditions: 24 hours pretreatment before freezing (LY294 10 μM, sc79 10 μM, Exendin-4 20 nM)
Experimental: ASCs from donor A were thawed by warming the vials in a 37° C. bath and diluting the freezing medium containing DMSO with fresh complete DMEM (DMEM/F-12 media—GlutaMAX™-I, Gibco, supplemented with 100 μg/mL penicillin/streptomycin and 10% FBS). Cells were centrifuged at 450 g for 6 minutes at room temperature to eliminate leftover DMSO and plated in T-175 flasks at 20.000 cells/cm^2 in complete DMEM.
A 600 mM stock of NAC (SIGMA) was prepared in Milli-Q water (Millipore). This stock was used for pre-treatment and post-treatment by adding directly 50 μL stock solution per well into 5 mL of medium, making a final concentration of 6 mM. For 2 mM, only 16.7 μL were added per well, and in the case of 12 mM, 100 μL of stock were added. DMSO was used as the vehicle for sc79 and LY294.
Following the pretreatment step, the medium was removed, the cells were washed with PBS and trypsinized using trypsin-EDTA 0.25% (ThermoFisher) for 8 minutes at 37° C. After trypsin inactivation with complete DMEM, cells were harvested and centrifuged prior to resuspension in freezing medium (FBS with 10% DMSO), and frozen into 500,000 or 1 million cells per vial and stored in liquid nitrogen for further use. Specifically, the cells were frozen at −80° C. for 24 hours in a Cool Cell® device (BioCision) and then transferred to a liquid nitrogen storage container. All experiments were performed in incubators and 37° C., 5% CO2.
[…] The CellTiter 96° Aqueous One Solution Cell Proliferation Assay is a colorimetric method for determining the number of viable cells. The CellTiter 96° Aqueous One Solution reagent contains a tetrazolium compound [3-(4,5-dimethylthiazol-2-yl)-5-(3-carboxymethoxyphenyl)-2-(4-sulfophenyl)-2H-tetrazolium, MTS] and an electron coupling reagent (phenazine ethosulfate; PES). The MTS tetrazolium compound is bioreduced by cells—presumably by NADPH or NADH produced by dehydrogenase enzymes in metabolically active cells—into a coloured formazan product that is soluble in tissue culture medium.
Briefly, 40 μL of the reagent was added to 200 μL of complete DMEM in each well and absorbance was measured after 2-3 hours at 490 nm using a […]. Each condition was measured in 6 technical repeats. The MTS assay results are presented as percentage of absorbance at 490 nm relative to the non-treated (NT) cells.

Row | Compound | effect of pre-treatment on post-thaw cell number
1 | CCOC(=O)C1=C(N)Oc2ccc(Cl)cc2C1C(C#N)C(=O)OCC (stereo not shown) [sc79] | did not show reproducible effects on cell number
2 | IL6: pre-treatment assessed in addition to NAC; no concentration given | did not show reproducible effects on cell number
3 | O=c1cc(N2CCOCC2)oc2c(-c3ccccc3)cccc12 [LY294] | did not show reproducible effects on cell number
4 | Exendin-4 | did not show reproducible effects on cell number
